This is an account of results in ChEMBL document CHEMBL4831557, “Parthenolide Derivatives as PKM2 Activators Showing Potential in Colorectal Cancer” (J Med Chem, 2021).

Experiment [1] addresses T1, Pyruvate kinase PKM (Homo sapiens, UniProt P14618). In words: Inhibition of PKM2/STAT3 in human HT-29 cells assessed as increase in bax protein expression at 0.45 to 1.8 uM incubated for 48 hrs by Western blot analysis. Type of experiment: cell-based. To be noted: dose 0.45-1.8 µM. On the technique in general: Immunoblotting shows a protein as a band on a membrane.
In experiment [2] the test system is SW480. The experiment is described as follows: Induction of cell cycle arrest in human […] cells assessed as accumulation of cells at G2/M phase after 48 hrs by PI staining based flow cytometric analysis. Type of experiment: functional. To be noted: dose 0.2-0.6 µM. In general terms: In flow cytometry, cells or beads pass a laser one at a time.
For experiment [3], the target named is T1, Pyruvate kinase PKM. The experiment is described as follows: Inhibition of PKM2 dimer nuclear translocation in human HT-29 cells by immunostaining based analysis. Type of experiment: cell-based.
For experiment [4], the system named is HT-29. In words: Induction of apoptosis in human HT-29 cells after 48 hrs by Annexin V-PE and 7-AAD staining based flow cytometric analysis. Type of experiment: functional, cell-based. To be noted: dose 0.45-1.8 µM.
In experiment [5] the test system is HT-29. The experiment is described as follows: Inhibition of epithelial-mesenchymal transition in human HT-29 cells assessed as change in E-cadherin expression. Type of experiment: functional, cell-based.
The subject of experiment [6] is HT-29. In words: Antimigratory activity against human HT-29 cells. Type of experiment: functional, cell-based.
Experiment [7] deals with SW480. In words: Induction of apoptosis in human SW480 cells after 48 hrs by Annexin V-PE and 7-AAD staining based flow cytometric analysis. Type of experiment: functional, cell-based. To be noted: dose 0.2-0.8 µM.
Experiment [8] deals with HT-29. The experiment is described as follows: Induction of intracellular ROS production in human HT-29 cells at 0.45 to 1.8 uM incubated for 48 hrs by DCFH-DA staining based flow cytometry analysis. Type of experiment: functional, cell-based. To be noted: dose 0.45-1.8 µM.
Experiment [9] addresses Pyruvate kinase PKM (Homo sapiens, UniProt P14618, C424A). In words: Activation of human PKM2-C424A expressed in Escherichia coli BL21 (DE3).
The test system of experiment [10] is HT-29. In words: Induction of cell cycle arrest in human HT-29 cells assessed as accumulation of cells at G2/M phase after 48 hrs by PI staining based flow cytometric analysis. Type of experiment: functional. To be noted: dose 0.45-1.8 µM.
For experiment [11], the system named is HT-29. In words: Effect on total PKM2 protein expression in cytoplasm of human HT-29 cells at 0.45 to 1.8 uM after 48 hrs by Western blot analysis. Type of experiment: functional, cell-based. To be noted: dose 0.45-1.8 µM.
A further experiment concerns A549. In words: cells. To be noted: Homo sapiens, A549, 48 h.
The target of experiment [12] is T1, Pyruvate kinase PKM. In words: Inhibition of PKM2/STAT3 in human HT-29 cells assessed as reduction in bcl2 protein expression at 0.45 to 1.8 uM incubated for 48 hrs by Western blot analysis. Type of experiment: cell-based. To be noted: dose 0.45-1.8 µM.

Activity calls are given as the source filed them. No cut-off for these calls is given here.

T1 sequence (P14618 2-531 limits assumed): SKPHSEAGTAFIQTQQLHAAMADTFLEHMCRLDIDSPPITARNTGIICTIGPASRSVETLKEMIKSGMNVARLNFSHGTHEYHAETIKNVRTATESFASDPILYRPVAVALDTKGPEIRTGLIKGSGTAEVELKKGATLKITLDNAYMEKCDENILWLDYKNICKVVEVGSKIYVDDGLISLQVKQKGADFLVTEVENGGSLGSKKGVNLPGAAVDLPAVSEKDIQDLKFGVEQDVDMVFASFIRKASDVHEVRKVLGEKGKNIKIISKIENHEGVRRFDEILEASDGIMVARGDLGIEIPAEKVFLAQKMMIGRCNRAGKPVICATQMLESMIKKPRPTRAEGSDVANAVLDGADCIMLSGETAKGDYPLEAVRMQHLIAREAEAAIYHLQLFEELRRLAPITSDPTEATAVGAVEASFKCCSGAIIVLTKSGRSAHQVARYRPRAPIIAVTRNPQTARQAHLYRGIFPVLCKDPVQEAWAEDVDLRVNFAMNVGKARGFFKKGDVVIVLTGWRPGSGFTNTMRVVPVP
Pyruvate kinase PKM (Homo sapiens, UniProt P14618, C424A), sequence (P14618 2-531 C424A limits assumed): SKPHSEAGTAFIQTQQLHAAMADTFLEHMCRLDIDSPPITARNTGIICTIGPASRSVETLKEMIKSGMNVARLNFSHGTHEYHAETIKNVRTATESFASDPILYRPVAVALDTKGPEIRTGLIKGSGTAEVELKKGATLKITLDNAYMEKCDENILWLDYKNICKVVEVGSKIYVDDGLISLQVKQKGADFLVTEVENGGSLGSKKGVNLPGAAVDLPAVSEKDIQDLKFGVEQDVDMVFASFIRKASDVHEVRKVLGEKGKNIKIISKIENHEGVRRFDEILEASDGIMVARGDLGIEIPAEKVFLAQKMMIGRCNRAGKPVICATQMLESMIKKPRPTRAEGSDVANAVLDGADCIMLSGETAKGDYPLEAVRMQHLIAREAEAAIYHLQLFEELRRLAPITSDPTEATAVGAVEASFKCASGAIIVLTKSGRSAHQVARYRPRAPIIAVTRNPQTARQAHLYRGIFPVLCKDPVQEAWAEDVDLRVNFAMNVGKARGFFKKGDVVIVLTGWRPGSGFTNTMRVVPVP

Take `C=C1C(=O)O[C@H]2[C@H]1CC/C(COC(=O)c1ccc3nccc(Br)c3c1)=C/CC[C@@]1(C)O[C@@H]21`: the inhibition entry on Pyruvate kinase PKM [1], on Pyruvate kinase PKM [3] and on Pyruvate kinase PKM [12] was “Active” in each case. The Activity result in the experiment with SW480 [2], in the experiment on HT-29 [4], in the experiment with SW480 [7] and with HT-29 [10] was “Dose-Dependent Effect” throughout. The inhibition result with HT-29 [5] is “inactive”. Besides, the result in the experiment with HT-29 [6] and in the experiment with HT-29 [8] was Active. Further, half-maximal activity at Pyruvate kinase PKM [9] (AC50) was put at 100 nM. Also, the result with HT-29 [11] was inactive. Moreover, in the experiment on A549, half-maximal inhibition (IC50) required 1670 nM.

A word on the AC50: it is the concentration at which the activity in the assay is half-maximal. A higher AC50 goes with activity only at high concentration. The IC50 is the concentration that inhibits the measured activity by half. Read a low IC50 as inhibition by little substance.
